Patent US7291730B2, “Pyrimidine compounds and their use” (Sumitomo Chemical Company, Limited, priority 2000, dated 2007)

| SMILES | melting point [°C] |
| --- | --- |
| CC#CCOc1cc(Oc2c(F)cc(F)cc2F)ncn1 [present compound (45), 4-(2-butynyloxy)-6-(2,4,6-trifluorophenoxy)pyrimidine] | 60.3 |
| C#CCOc1cc(Oc2ccc(Cl)cc2Cl)ncn1 [present compound (22), 4-(2,4-dichlorophenoxy)-6-(2-propynyloxy)pyrimidine] | 106.7 |
| CC#CCOc1cc(-c2ccc(F)cc2F)ncn1 [present compound (44), 4-(2-butynyloxy)-6-(2,4-difluorophenyl)pyrimidine] | 63.9 |
| C#CCOc1cc(Oc2cc(Cl)ccc2Cl)ncn1 [present compound (25), 4-(2,5-dichlorophenoxy)-6-(2-propynyloxy)pyrimidine] | 87.7 |
| C#CCOc1cc(Oc2ccc(Cl)c(Cl)c2)ncn1 [present compound (23), 4-(3,4-dichlorophenoxy)-6-(2-propynyloxy)pyrimidine] | 109.2 |
| CC#CCOc1cc(Oc2ccc(F)c(F)c2)ncn1 [present compound (10), 4-(2-butynyloxy)-6-(3,4-difluorophenoxy)pyrimidine] | 109.7 |
| CC#CCOc1cc(OCC#CC)ncn1 [present compound (1), 4,6-bis(2-butynyloxy)pyrimidine] | 82.9 |
| C#CCOc1cc(Oc2c(F)cccc2F)ncn1 [present compound (21), 4-(2,6-difluorophenoxy)-6-(2-propynyloxy)pyrimidine] | 67.2 |
| CC#CCOc1cc(Cc2c(F)cccc2F)ncn1 [present compound (80), 4-(2,6-difluorobenzyl)-6-(2-butynyloxy)pyrimidine] | 57.6 |
| C#CCOc1cc(Oc2cc(Cl)cc(Cl)c2)ncn1 [present compound (24), 4-(3,5-dichlorophenoxy)-6-(2-propynyloxy)pyrimidine] | 136.5 |
| C#CCOc1cc(Oc2ccc(Cl)cc2)ncn1 [present compound (14), 4-(4-chlorophenoxy)-6-(2-propynyloxy)pyrimidine] | 100.3 |

More lines, now with the values ahead:

| melting point [°C] | SMILES |
| --- | --- |
| 57.6 | CC#CCOc1cc(N(C)c2ccccc2)ncn1 [present compound (93), 4-(N-methyl-N-phenylamino)-6-(2-butynyloxy)pyrimidine] |
| 72 | C#CCOc1cc(Oc2ccc(OC)cc2)ncn1 [present compound (31), 4-(4-methoxyphenoxy)-6-(2-propynyloxy)pyrimidine] |
| 91.9 | C#CCOc1cc(Oc2cccc(Cl)c2Cl)ncn1 [present compound (26), 4-(2,3-dichlorophenoxy)-6-(2-propynyloxy)pyrimidine] |
| 115.8 | CC#CCOc1cc(Oc2ccc(F)cc2)ncn1 [present compound (62), 4-(4-fluorophenoxy)-6-(2-butynyloxy)pyrimidine] |
| 81.4 | C#CCOc1cc(Oc2ccc(F)cc2)ncn1 [present compound (35), 4-(4-fluorophenoxy)-6-(2-propynyloxy)pyrimidine] |
| 74 | C#CCOc1cc(OCC#C)ncn1 [present compound (52), 4,6-bis(2-propynyloxy)pyrimidine] |
| 94 | CC#CCOc1cc(Oc2cccc(C(C)=O)c2)ncn1 [present compound (71), 4-(2-butynyloxy)-6-(3-acetylphenoxy)pyrimidine] |
| 162 | CC#CCOc1cc(Oc2ccc(C#N)cc2)ncn1 [present compound (41), 4-(2-butynyloxy)-6-(4-cyanophenoxy)pyrimidine] |
| 60.1 | CC#CCOc1cc(Oc2cccc(F)c2)ncn1 [present compound (61), 4-(3-fluorophenoxy)-6-(2-butynyloxy)pyrimidine] |
| 90.1 | CC#CCOc1cc(Oc2ccc(F)c(C(F)(F)F)c2)ncn1 [present compound (48), 4-(2-butynyloxy)-6-(4-fluoro-3-trifluoromethylphenoxy)pyrimidine] |
